{"source": "patent US6590123B2", "about": "“Aminobenzoic acid derivatives having anti-tumorigenic activity, methods of making and using the same” (Mount Sinai School of Medicine of New York University, priority 1998, dated 2003)", "key": {"[1]": {"tested_on": "NIH 3T3 fibroblast cell line", "test": "Block of mitosis, morphology by microscopy", "format": "cell-based, mouse", "set-up": "key to Block of Mitosis: +Block of mitosis was observed; −no mitotic blocking", "method": "(§1) All cell lines, with the exception of human SP cells, a biphenotypic leukemic cell line (reference 10 & 11), were obtained from the American Tissue Culture Collection (Rockville, Md.) and were cultured under conditions recommended by the vendor. EL4 murine leukemia lymphoma (as suspension) and B16 mouse melanoma (as monolayer) cell lines were cultivated in RPMI-1640 medium supplemented with 10% fetal bovine serum (FBS), penicillin (250 μ/ml) and streptomycin (250 μml); MOT, a non-tumor proliferative myocardial cell line from rat and NIH 3T3, a non-malignant and proliferative fibroblast cell line from mouse were both cultured as monolayers in Dulbecco's Modified Eagle's Medium with 10% heat inactivated calf serum. CEM, a human acute T-cell leukemic cell line, was cultured as a suspension in Iscove's Dulbecco's Medium with 10% heat inactivated fetal calf serum and antibiotics. PC-3 cells, a human prostate cancer line, was cultured as monolayers in RPMI-1640 with 10% FBS. SP cells were cultured in Minimum Eagle's Medium plus 10% FBS. Human peripheral blood lymphocytes (PBL) were isolated from whole blood of healthy individuals by Ficoll-Hypaque gradient method. Isolated PBL were maintained in RPMI-1640 in the presence of 10% homologous plasma at 37° C. All cells were incubated at 37° C. in 5% C02. Cells in exponential growth were used. […]"}, "[2]": {"tested_on": "repolymerized microtubules", "test": "Inhibition of microtubule disassembly by spectrophotometry, cell free system", "format": "biochemical, calf", "details": "20 μg/ml (66 μM)", "method": "Purified tubulin was purchased from Sigma (St. Louis, Mo.). The effects of compounds 6, 7, 8, 9, paclitaxel and vinblastine on the microtubule assembly-disassembly process were determined using conditions recommended by the vendor. For assembly inhibition, 100 μl tubulin solution (500-600 μg protein/ml) was mixed gently with 400 μl reaction buffer containing 0.1 M MES (2-[N-morpholino]ethane sulfonic acid), 1 mM EGTA ([…]-N,N,N′,N′-tetraacetic acid), 0.5 mM MgCl2, 0.1 mM EDTA and 2.5 M gycerol at 37° C. Compounds 6, 7, 8, and 9 were next added to each sample at final concentrations of 10, 10, 1 and 1 μg/ml, respectively. After adding GTP to each sample to a final concentration of 1 mM, the microtubule assembly process was monitored by measuring the change of absorbance (OD) at 350 nm on a spectrophotometer (Ultrospec III, Pharmacia LKB, Uppsala, Sweden). […] Changes of absorbance (OD) were monitored at 350 nm for 30 min until the OD values in the controls returned to the starting level, i.e., when the assembly-disassembly cycle was completed.\nPurified tubulin from calf brain was purchased from Sigma (St. Louis, Mo.). The effects of 3-BAABU (3-bromoacetoamido, benzoylurea) on the microtubule assembly-disassembly process were determined using the conditions recommended by the vendor. […]"}, "[3]": {"tested_on": "EL4 murine leukemia lymphoma", "test": "Block of mitosis, morphology by microscopy", "format": "cell-based", "set-up": "key: +Block of mitosis was observed; −no mitotic blocking", "details": "37° C. for 48 hr", "method": "as §1"}}}
{"smiles": "NC(=O)NC(=O)c1cccc(NC(=O)CBr)c1", "note": "[Compound 8, 3-Bromoacetoamido, benzoylurea]", "values": [{"measurement": "Block of Mitosis", "setting": "[1]; 3T3, Murine fibroblast (non-tumor), 37° C. for 48 hr", "value": "−"}, {"measurement": "morphologic effect", "setting": "[1]; murine fibroblast cells, 1.0 μg/ml, 24 hr at 37° C.", "value": "no effect"}, {"measurement": "effect on microtubular depolymerization", "setting": "[2]", "value": "not influenced"}, {"measurement": "Block of Mitosis", "setting": "[3]", "value": "+"}]}
